Assay results published in US6815439B2, “Substituted aza-oxindole derivatives” (SmithKline Beecham Corporation, priority 1999, dated 2004).

Columns and labels:
Format in all cases: biochemical
CDK2 = CDK2 (Homo sapiens, UniProt P24941); experiment: CDK2 substrate phosphorylation assay; settings: kinase inhibition, Table 3
Method: Cyclin dependent protein kinase assays utilized the peptides Biotin-aminohexyl-[…] and Biotin-aminohexyl-[…]-NH2 as phosphoryl group acceptors. CDK2 was expressed utilizing a baculovirus expression system and was partially purified to comprise 20-80% of total protein, with no detectable competing reactions present. Typically, assays were performed by incubating enzyme (0.2-10 nM), with and without inhibitor, one of the two peptide substrates ([…]), [γ-^32P]ATP ([…]), and 10-20 mM Mg^2+ for periods of time generally within the range 10-120 min. Reactions were terminated with 0.2-2 volumes of either 20% acetic acid or 50-100 mM EDTA buffered to pH 7 (substrate consumption <20%). The buffer employed in enzyme assays was either 30 mM HEPES 7.4 containing 0.15 M NaCl and 5% DMSO, the buffer 50 mM MOPS 7.0 containing 0.15 M NaCl and 5% DMSO, or the buffer 100 mM HEPES pH 7.5 containing 0.1 mg/mL BSA and 5% DMSO. Inhibitors were diluted in 100% DMSO prior to addition into the assay. Detection of peptide phosphorylation was accomplished by scintillation counting following either collection of peptide onto phosphocellulose filters (for reactions stopped with acetic acid), collection of peptide in wells of 96 well plates coated with Streptavidin (Pierce) (reactions were stopped with EDTA), or addition of Avidin coated Scintillant impregnated beads (Scintillation Proximity Assays from Amersham; reactions were stopped with EDTA).

VEGFR-2 = molecular target: T1, VEGFR-2 (Homo sapiens, UniProt P35968); experiment: VEGFR-2 kinase assay; settings: kinase inhibition, Table 3; read-out: VEGFR2 (IC50)
T1 construct: The kinase domain of the enzyme was purified to homogeneity from a baculovirus expression system; made in house
Method: The peptide substrate used in the VEGFR-2 assay was biotin-aminohexyl-[…]-NH2. The kinase domain of the enzyme was purified to homogeneity from a baculovirus expression system. The enzyme was preactivated on ice for 15 min in the presence of 100 μM ATP and 20 mM MgCl2, and stored at −80° C. until needed for assay. The activated enzyme was diluted to 0.4 nM into a 60 μl reaction containing 100 mM HEPES, pH 7.5, 5 μM ATP, 10 mM MgCl2, 5 μM peptide, 0.1 mM DTT, 0.05 mg/ml BSA, and an inhibitor at varying concentrations. The controls were reactions in the presence (negative controls) or absence (positive controls) of 50 mM EDTA. Reactions were incubated for 30 min at room temperature, and then quenched by the addition of EDTA to 60 mM in 210 μl. The quenched samples (190 μl) were transferred to a neutravidin-coated plate (Pierce) and incubated at room temperature for 40 min to allow biotinylated peptide to bind to the neutravidin. The unbound components of the reaction were removed by washing with a plate washer, then 200 μl HRP-PY20 anti-phosphotyrosine antibody conjugate was added to each well. After incubation for 40 min, the plate was washed to remove any unbound anitbody. A HRP substrate, K-blue (Neogen) was added and the reaction was quenched with Red Stop (Neogen) after 20 min. The absorbance of the wells was read at A650 in a plate reader. IC50 values were obtained by fitting raw data to A650=VMAX*(1−[I]/IC50+[I])))+b, where b is background.

c-fms = molecular target: T2, c-fms (Homo sapiens, UniProt P07333); experiment: c-fms protein kinase assay; settings: kinase inhibition, Table 3
T2 construct: The c-fms intracellular domain was expressed from a baculovirus expression system; GST (N); made in house
T2 sequence (P07333 539-972 limits assumed): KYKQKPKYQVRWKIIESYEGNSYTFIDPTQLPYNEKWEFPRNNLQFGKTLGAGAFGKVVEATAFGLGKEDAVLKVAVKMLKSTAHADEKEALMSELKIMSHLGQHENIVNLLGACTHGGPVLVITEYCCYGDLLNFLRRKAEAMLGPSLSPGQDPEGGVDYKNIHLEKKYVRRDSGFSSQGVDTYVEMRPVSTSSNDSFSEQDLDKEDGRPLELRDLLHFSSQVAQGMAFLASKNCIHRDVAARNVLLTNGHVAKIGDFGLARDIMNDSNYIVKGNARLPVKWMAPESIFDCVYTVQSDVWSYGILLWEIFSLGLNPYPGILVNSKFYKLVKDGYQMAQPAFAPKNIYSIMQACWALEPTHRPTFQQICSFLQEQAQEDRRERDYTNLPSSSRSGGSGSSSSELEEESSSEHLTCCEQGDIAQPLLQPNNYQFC
Method: c-fms protein kinase assays utilized the peptide substrate, biotin-[…]-NH2 as the phosphoryl group acceptor. The c-fms intracellular domain was expressed from a baculovirus expression system, as an amino-terminal GST fusion protein, and purified to homogeneity using Glutathione agarose from Sigma Chemical Co. Maximum activation of the enzyme was achieved by preactivation at room temperature for 120 min in the presence of 100 μM ATP and 15 mM MgCl2, This enzyme stock was diluted to 150 nM prior to using in the assay. Typically assays were performed in white, opaque, 96-well plates in a 45 ul assay volume including 15 ul 6% DMSO, with or without compounds, 15 ul of the preactivated, diluted enzyme, and 15 ul of a substrate mixture. Reactions contained 50 mM HEPES, pH 7.5, 1.7 μM ATP, 15 mM MgCl2, 3 μM peptide, 2.5 mM DTT, 50 mM NaCl and 0.15 uCi/assay [□□^32P]ATP. The controls were reactions in the presence (negative controls) or absence (positive controls) of 50 mM EDTA. Reactions were allowed to proceed for 90 min at room temperature. The reaction products were quantified using Scintillation Proximity technolgy. The reactions were quenched by the addition of 200 ul of a solution containing 0.3 mg streptavidin SPA beads from Amersham, 50 mM EDTA, 0.1% TX-100, 50 uM ATP, in PBS, pH7.2 (phosphate buffered solution). Plates were sealed and counted in a Packard Topcount scintillation counter. IC50 values were obtained by fitting raw data to the equation y=Vmax*(1−(x/(k+x))).

T1 sequence (P35968 834-1162 limits assumed, species assumed): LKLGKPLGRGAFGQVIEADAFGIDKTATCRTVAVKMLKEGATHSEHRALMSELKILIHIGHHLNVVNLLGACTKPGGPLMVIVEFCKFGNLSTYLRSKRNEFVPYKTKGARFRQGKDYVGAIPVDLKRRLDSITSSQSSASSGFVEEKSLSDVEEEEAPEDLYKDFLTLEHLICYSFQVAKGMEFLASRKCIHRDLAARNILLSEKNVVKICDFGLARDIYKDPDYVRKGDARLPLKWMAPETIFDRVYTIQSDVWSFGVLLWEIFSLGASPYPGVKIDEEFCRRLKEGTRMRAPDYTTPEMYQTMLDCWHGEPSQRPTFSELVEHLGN

Row | SMILES | IC50 (CDK2) [nM] | IC50 (VEGFR-2) [nM] | IC50 (c-fms) [nM]
1 | CCOC(=O)c1cnc2c(c1)C(=CNc1ccc(S(N)(=O)=O)cc1)C(=O)N2 [Example 23, Ethyl 3-{[4-(aminosulfonyl)anilino]methylidene}-2-oxo-1,2-dihydro-3H-pyrrolo[2,3-b]pyridine-5-carboxylate] | 10 to 100 | 100 to 1000 | 1000 to 10000
2 | O=C1Nc2ncc(-c3ccco3)cc2C1=CNc1ccc2cn[nH]c2c1 [Example 12, 5-(2-Furyl)-3-[(1H-indazol-6-ylamino)methylidene]-1H-pyrrolo[2,3-b]pyridin-2-one] | 1000 to 10000 | 100 to 1000 | 1000 to 10000
3 | NS(=O)(=O)c1ccc(NC=C2C(=O)Nc3ccncc32)cc1 [Example 1, 4-{[(2-Oxo-1,2-dihydro-3H-pyrrolo[3,2-c]pyridin-3-ylidene)methyl]amino}benzenesulfonamide] | 10 to 100 | 1000 to 10000 | –
4 | O=C1Nc2ncc(-c3ccccc3)cc2C1=CNc1ccc2ncccc2c1 [Example 10, 5-Phenyl-3-[(6-quinolinylamino)methylidene]-1,3-dihydro-2H-pyrrolo[2,3-b]pyridin-2-one] | – | – | 1000 to 10000
5 | O=C1Nc2ncccc2C1=CNc1ccc2cn[nH]c2c1 [Example 6, 3-[(1H-Indazol-6-ylamino)methylidene]-1H-pyrrolo[2,3-b]pyridin-2-one] | – | 100 to 1000 | 1000 to 10000
6 | CCOC(=O)c1cnc2c(c1)C(=CNc1ccc3ncccc3c1)C(=O)N2 [Example 25, Ethyl 2-oxo-3-[(6-quinolinylamino)methylidene]-2,3-dihydro-1H-pyrrolo[2,3-b]pyridine-5-carboxylate] | 100 to 1000 | 100 to 1000 | –
7 | NS(=O)(=O)c1ccc(NC=C2C(=O)Nc3cnccc32)cc1 [Example 2, 4-{[(2-Oxo-1,2-dihydro-3H-pyrrolo[2,3-c]pyridin-3-ylidene)methyl]amino}benzenesulfonamide] | 10 to 100 | – | –
8 | NS(=O)(=O)c1ccc(NC=C2C(=O)Nc3ncc(-c4ccco4)cc32)cc1 [Example 11, 4-({[5-(2-Furyl)-2-oxo-1,2-dihydro-3H-pyrrolo[2,3-b]pyridin-3-ylidene]methyl}amino)benzenesulfonamide] | 10 to 100 | 1000 to 10000 | 100 to 1000
9 | O=C1Nc2ncc(Br)cc2C1=CNc1ccc2ncccc2c1 [Example 19, 5-Bromo-3-[(6-quinolinylamino)methylidene]-1,3-dihydro-2H-pyrrolo[2,3-b]pyridin-2-one] | 10 to 100 | 100 to 1000 | 1000 to 10000
10 | NS(=O)(=O)c1ccc(NC=C2C(=O)Nc3ncc(-c4ccsc4)cc32)cc1 [Example 14, 4-({[2-Oxo-5-(3-thienyl)-1,2-dihydro-3H-pyrrolo[2,3-b]pyridin-3-ylidene]methyl}amino)benzenesulfonamide] | 100 to 1000 | 100 to 1000 | 100 to 1000
11 | CCOC(=O)c1cnc2c(c1)C(=CNc1ccc3cn[nH]c3c1)C(=O)N2 [Example 24, Ethyl 3-[(1H-indazol-6-ylamino)methylidene]-2-oxo-1,2-dihydro-3H-pyrrolo[2,3-b]pyridine-5-carboxylate] | 10 to 100 | 10 to 100 | 1000 to 10000
12 | O=C1Nc2ncc(-c3ccccc3)cc2C1=CNc1ccc2cn[nH]c2c1 [Example 9, 3-[(1H-Indazol-6-ylamino)methylidene]-5-phenyl-1H-pyrrolo[2,3-b]pyridin-2-one] | – | – | 1000 to 10000
13 | O=C1Nc2ncccc2C1=CNc1ccc2ncccc2c1 [Example 7, 3-[(6-Quinolinylamino)methylidene]-1,3-dihydro-2H-pyrrolo[2,3-b]pyridin-2-one] | – | 1000 to 10000 | –
14 | O=C1Nc2ncc(-c3ccco3)cc2C1=CNc1ccc2ncccc2c1 [Example 13, 5-(2-Furyl)-3-[(6-quinolinylamino)methylidene]-1,3-dihydro-2H-pyrrolo[2,3-b]pyridin-2-one] | – | 1000 to 10000 | 1000 to 10000
15 | O=C1Nc2cccnc2C1=CNc1ccc2cn[nH]c2c1 [Example 3, 3-[(1H-Indazol-6-ylamino)methylidene]-1H-pyrrolo[3,2-b]pyridin-2-one] | – | 1000 to 10000 | –
16 | NS(=O)(=O)c1ccc(NC=C2C(=O)Nc3ncc(Br)cc32)cc1 [Example 17, 4-{[(5-Bromo-2-oxo-1,2-dihydro-3H-pyrrolo[2,3-b]pyridin-3-ylidene)methyl]amino}benzenesulfonamide] | 10 to 100 | 100 to 1000 | 1000 to 10000
17 | O=C1Nc2ncc(-c3ccsc3)cc2C1=CNc1ccc2cn[nH]c2c1 [Example 15, 3-[(1H-Indazol-6-ylamino)methylidene]-5-(3-thienyl)-1,3-dihydro-2H-pyrrolo[2,3-b]pyridin-2-one] | 100 to 1000 | 1000 to 10000 | 1000 to 10000
18 | O=C1Nc2ncc(-c3ccsc3)cc2C1=CNc1ccc2ncccc2c1 [Example 16, 3-[(6-Quinolinylamino)methylidene]-5-(3-thienyl)-1,3-dihydro-2H-pyrrolo[2,3-b]pyridin-2-one] | – | 1000 to 10000 | 100 to 1000
19 | NS(=O)(=O)c1ccc(NC=C2C(=O)Nc3nc(Cl)ccc32)cc1 [Example 20, 4-{[(6-Chloro-2-oxo-1,2-dihydro-3H-pyrrolo[2,3-b]pyridin-3-ylidene)methyl]amino}benzenesulfonamide] | 100 to 1000 | 100 to 1000 | –
20 | NS(=O)(=O)c1ccc(NC=C2C(=O)Nc3ncccc32)cc1 [Example 5, 4-{[(2-Oxo-1,2-dihydro-3H-pyrrolo[2,3-b]pyridin-3-ylidene)methyl]amino}benzenesulfonamide] | 100 to 1000 | 1000 to 10000 | –
21 | NS(=O)(=O)c1ccc(NC=C2C(=O)Nc3ncc(-c4ccccc4)cc32)cc1 [Example 8, 4-{[(2-Oxo-5-phenyl-1,2-dihydro-3H-pyrrolo[2,3-b]pyridin-3-ylidene)methyl]amino}benzenesulfonamide] | 1000 to 10000 | – | –
22 | O=C1Nc2nc(Cl)ccc2C1=CNc1ccc2ncccc2c1 [Example 22, 6-Chloro-3-[(6-quinolinylamino)methylidene]-1,3-dihydro-2H-pyrrolo[2,3-b]pyridin-2-one] | – | 1000 to 10000 | 1000 to 10000
23 | O=C1Nc2cccnc2C1=CNc1ccc2ncccc2c1 [Example 4, 3-[(6-Quinolinylamino)methylidene]-1,3-dihydro-2H-pyrrolo[3,2-b]pyridin-2-one] | – | 1000 to 10000 | –
